Laboratory results as given in patent US20230234917A1, “ASPARAGINE DERIVATIVES AND METHODS OF USING SAME” (priority 2020, published 2023).

Legend:
Full-length WT ClbP = Full-length WT ClbP (Escherichia coli, UniProt Q0P7K6); assay: ClbP molecular (purified protein) enzymatic inhibition assay, fluorogenic substrate; type: biochemical, E. coli
Method: ClbP Molecular (Purified Protein) Assay
1) Full-length WT ClbP was thawed on ice. A diluted enzyme solution (2 nM) was made by mixing 3.57 μL of enzyme with 20 mL of reaction buffer (50 mM Tris pH 8.0, 200 mM NaCl, 0.02% (w/v) n-dodecyl-b-D-maltoside (DDM)).
2) In a 96 well plate, the diluted protein solution (73.5 μL) was mixed with inhibitor (1.5 μL, of varying concentrations, see below) and preincubated for 15 min at room temperature. Then, reaction buffer (75 μL) containing 10 μM fluorogenic substrate was added to initiate the reaction. After addition of substrate, the final concentrations were 1 nM full-length WT ClbP, 5 μM fluorogenic substrate in 50 mM Tris pH 8.0, 200 mM NaCl, 0.02% (w/v) DDM, with either 0, 0.14, 0.41, 1.2, 3.7, 11, 33, or 100 μM inhibitor. For all conditions, the DMSO carryover was 2% (v/v) at the preincubation stage and 1% in the reaction stage. Compound No. III was always present as a control in each plate, and all compounds were tested in singlicate. In previous assays, the Km of the fluorogenic substrate was determined to be approximately 5 μM.
3) Immediately after addition of substrate to enzyme, the plate was transferred into a spectrophotometer held at room temperature. The fluorescence was recorded every 1.5 min for 15 min. The excitation wavelength was 360 nm (20 nm bandwidth), the emission wavelength was 440 nm (20 nm bandwidth), the optics position was bottom, the gain was extended, the light source was a xenon flash lamp, and the read speed was normal.
(§1) 4) The linear portion of the fluorescence increase is at least from 0-6 min, so this time regime is used. The rate of fluorescence increase (A.U./min) for each well in an inhibitor series was normalized to the 0 μM inhibitor condition. The normalized activity as a function of inhibitor concentration was then fit to a three parameter IC50 curve in Graphpad Prism.
(§2) “A” indicates an IC50 value less than 100 μM, “B” indicates an IC50 between 100 and 300 μM, “C” indicates an IC50 above 300 μM.

ClbP [1] = biological target: T1, ClbP (Escherichia coli, UniProt Q0P7K6); assay: ClbP cell lysate activity (inhibition) assay, fluorogenic substrate; type: biochemical; conditions: ClbP Lysate Inhibition Assay: IC50, E. coli ClbP+ lysozyme-EDTA lysates, 5 μM fluorogenic substrate, inhibitor 0-300 μM, 37° C., singlicate
Method: Cell Lysate Activity Assay
(§3) 1) E. coli ClbP+ were taken from a frozen stock and streaked onto BHI plates. They were grown aerobically at 37° C. overnight in the incubator.
(§4) 1) A single colony was selected from the plate and inoculated into 30 mL LB in a 50 mL conical vial eight times (240 mL total). The bacteria were grown aerobically overnight (16-20 h) at 37° C. on a nutator with rocking.
1) The saturated overnight culture was centrifuged to create a firm pellet (3,200 g, 10 min, 4° C.). The supernatant was removed and then the pellet was resuspended in 30 mL sterile PBS.
2) The bacteria were centrifuged again (3,200 g, 10 min, 4° C.). The supernatant was removed, and the pellet was resuspended in sterile PBS buffer (3 mL) in each 8 tubes to make a tenfold concentrated bacterial solution.
3) A lysozyme-EDTA (LE) solution was made in ddH2O (0.05 mg/mL lysozyme, 0.25 M EDTA).
4) For each of the eight tubes, LE solution (3 mL) was mixed with concentrated bacterial solution (3 mL). This mixture was incubated at 37° C. for 30 min to generate the lysates.
5) The lysates (192 μL) were mixed with inhibitor (6 μL, final concentration was 300, 100, 33.3, 11.1, 3.7, 1.2, 0.4, or 0 μM). Fluorogenic substrate (2 μL, final concentration 5 μM) was immediately added across the plate to initiate the reaction. As a control, each plate contained Compound No. III in this dose response curve. The final concentration of bacterial lysates was fivefold concentrated compared to the original saturated overnight culture. Carryover from DMSO was 4% (v/v). All compounds were tested in singlicate.
(§5) 6) The plate was loaded into a spectrophotometer preheated to 37° C. The fluorescence was recorded every 2 min for 46 min. The excitation wavelength was 360 nm (20 nm bandwidth), the emission wavelength was 460 nm (20 nm bandwidth), the optics position was bottom, the gain was 65, the light source was a tungsten bulb, and the read speed was normal.
as §1, with “7)” for “4)”, “was 0-20 min.” for “is at least from 0-6 min, so this time regime is used.”
as §2

ClbP [2] = biological target: T1, ClbP; assay: ClbP whole cell activity (inhibition) assay, fluorogenic substrate; type: cell-based, E. coli
Method: Whole Cell Activity Assay
as §3, §4
1) The saturated overnight culture was centrifuged to create a firm pellet (3,200 g, 10 min, 4° C.). In a biosafety cabinet, the supernatant was removed and then the pellet was resuspended in 30 mL sterile PBS.
2) The bacteria were centrifuged again (3,200 g, 10 min, 4° C.). The supernatant was removed, and the pellet was resuspended in sterile PBS buffer (6 mL) in each of the 8 tubes. This fivefold concentrated bacterial solution was the working solution.
3) The bacterial working solution (192 μL) was mixed with inhibitor (6 μL, final concentration was 300, 100, 33.3, 11.1, 3.7, 1.2, 0.4, or 0 μM). Fluorogenic substrate (2 μL, final concentration 5 μM) was immediately added across the plate to initiate the reaction. As a control, each plate contained Compound No. III in this dose response curve. The bacterial concentration was fivefold concentrated compared to the original saturated overnight culture. Carryover from DMSO was 4% (v/v). All compounds were tested in singlicate.
as §5, with “4)” for “6)”
as §1, with “5)” for “4)”, “was 10-30 min.” for “is at least from 0-6 min, so this time regime is used.”
as §2

Structure (SMILES): NC(=O)C[C@@H](NC(=O)CCCc1ccc(O)cc1)C(=O)NCCc1ccc(O)cc1 [Compound CCLIII]
- IC50 (Full-length WT ClbP): < 100 µM
- IC50 (ClbP [1]): < 100 µM
- IC50 (ClbP [2]): < 100 µM

Structure (SMILES): NC(=O)C[C@@H](NC(=O)CCCC1CCNCC1)C(=O)NCCc1ccc(O)cc1 [Compound CCLII]
- IC50 (Full-length WT ClbP): 100 to 300 µM
- IC50 (ClbP [1]): > 300 µM
- IC50 (ClbP [2]): > 300 µM

Structure (SMILES): CCCCCCCC(=O)N[C@H](CC(N)=O)C(=O)NCCOc1ccccc1 [Compound CCLIV]
- IC50 (Full-length WT ClbP): < 100 µM
- IC50 (ClbP [1]): < 100 µM
- IC50 (ClbP [2]): < 100 µM

Structure (SMILES): CCCCCC(=O)N[C@H](CC(N)=O)C(=O)NCCc1ccc(C(F)(F)F)cc1 [Compound CCLIX]
- IC50 (Full-length WT ClbP): 100 to 300 µM
- IC50 (ClbP [1]): 100 to 300 µM

Structure (SMILES): NC(=O)C[C@@H](NC(=O)CCCc1ccncc1)C(=O)NCCc1ccc(O)cc1 [Compound CCLI]
- IC50 (Full-length WT ClbP): < 100 µM
- IC50 (ClbP [1]): 100 to 300 µM
- IC50 (ClbP [2]): < 100 µM

Structure (SMILES): CCCCCCCC(=O)N[C@H](CC(N)=O)C(=O)c1nccn1Cc1ccccc1 [Compound CCLVIII]
- IC50 (Full-length WT ClbP): 100 to 300 µM
- IC50 (ClbP [1]): > 300 µM
- IC50 (ClbP [2]): > 300 µM

Structure (SMILES): CCCCCCCC(=O)N[C@H](CC(N)=O)C(=O)c1nccn1C [Compound CCLVII]
- IC50 (Full-length WT ClbP): 100 to 300 µM
- IC50 (ClbP [1]): > 300 µM
- IC50 (ClbP [2]): > 300 µM

Structure (SMILES): CCCCCCCC(=O)N[C@H](CC(N)=O)C(=O)NCCc1cc(F)c(O)c(F)c1 [Compound CCLVI]
- IC50 (Full-length WT ClbP): < 100 µM
- IC50 (ClbP [1]): < 100 µM
- IC50 (ClbP [2]): < 100 µM

Structure (SMILES): CCCCCCCC(=O)N[C@H](CC(N)=O)C(=O)NCCOc1c(F)cccc1F [Compound CCLV]
- IC50 (Full-length WT ClbP): < 100 µM
- IC50 (ClbP [1]): < 100 µM
- IC50 (ClbP [2]): < 100 µM

Structure (SMILES): NC(=O)C[C@@H](NC(=O)CCCC1CCCC1)C(=O)NCCc1ccccc1 [Compound CCLXIII]
- IC50 (Full-length WT ClbP): < 100 µM
- IC50 (ClbP [1]): < 100 µM
- IC50 (ClbP [2]): < 100 µM

Structure (SMILES): NC(=O)C[C@@H](NC(=O)/C=C/CC1CCCC1)C(=O)NCCc1ccccc1 [Compound CCLXII]
- IC50 (Full-length WT ClbP): < 100 µM
- IC50 (ClbP [1]): > 300 µM
- IC50 (ClbP [2]): > 300 µM

Structure (SMILES): NC(=O)C[C@@H](NC(=O)CCCCCCC(=O)O)C(=O)NCCc1ccccc1 [Compound CCLXIV]
- IC50 (Full-length WT ClbP): 100 to 300 µM
- IC50 (ClbP [1]): > 300 µM
- IC50 (ClbP [2]): > 300 µM

Structure (SMILES): NC(=O)C[C@@H](NC(=O)CCCc1ccccc1)C(=O)NCCc1ccccc1 [Compound CCLXIX]
- IC50 (Full-length WT ClbP): < 100 µM
- IC50 (ClbP [1]): < 100 µM
- IC50 (ClbP [2]): < 100 µM

Structure (SMILES): NC(=O)C[C@@H](NC(=O)CCCC1CCCC1)C(=O)NCCc1ccc(O)cc1 [Compound CCLXI]
- IC50 (Full-length WT ClbP): < 100 µM
- IC50 (ClbP [1]): < 100 µM
- IC50 (ClbP [2]): < 100 µM

Structure (SMILES): CCCC(=O)N[C@H](CC(N)=O)C(=O)NCCc1ccccc1 [Compound CCLXVIII]
- IC50 (Full-length WT ClbP): 100 to 300 µM
- IC50 (ClbP [1]): > 300 µM
- IC50 (ClbP [2]): < 100 µM

Structure (SMILES): CCCCCC(=O)N[C@H](CC(N)=O)C(=O)NCCc1ccccc1 [Compound CCLXVII]
- IC50 (Full-length WT ClbP): < 100 µM
- IC50 (ClbP [1]): 100 to 300 µM
- IC50 (ClbP [2]): < 100 µM

Structure (SMILES): CCCCCCCC(=O)N[C@H](CC(N)=O)C(=O)NCCc1ccc(O)cc1 [Compound CC]
- IC50 (Full-length WT ClbP): < 100 µM

Structure (SMILES): CCCCCCCNC(=O)[C@H](CC(N)=O)NC(=O)OCC [Compound XCIX]
- IC50 (ClbP [1]): > 300 µM
- IC50 (ClbP [2]): > 300 µM
